Results: US20200216441A1, “PESTICIDALLY ACTIVE HETEROCYCLIC DERIVATIVES WITH SULFUR CONTAINING SUBSTITUENTS” (SYNGENTA PARTICIPATIONS AG, priority 2017, published 2020)

Tests used:
[1] = system: Myzus persicae (Green Peach Aphid); assay: whole plant or invertebrate; type: in vivo; settings: 144 h, test rate of 24 ppm, systemic, roots of infested pea seedlings in test solution, 6 days
[2] = system: Plutella xylostella (Diamond Back Moth); assay: whole plant or invertebrate; type: in vivo; settings: 120 h, application rate of 200 ppm, L2 larvae on treated artificial diet, 5 days after infestation, read-out: effect in at least one of the two categories (mortality or growth inhibition)
[3] = system: Myzus persicae (Green Peach Aphid); assay: whole plant or invertebrate; settings: foliar, 144 h
[4] = system: Diabrotica Balteata (Corn Root Worm); assay: Diabrotica balteata (Corn Root Worm); settings: in Zea mays, 96 h, read-out: effect in at least one of the two categories (mortality or growth inhibition)
[5] = system: Euschistus heros (Neotropical Brown Stink Bug); assay: whole plant or invertebrate; type: in vivo; settings: 120 h, application rate of 200 ppm, N2 nymphs on sprayed soybean leaves, 5 days after infestation, read-out: effect in at least one of the two categories (mortality or growth inhibition)

SMILES	mortality at 24 ppm [1]	percent effect (mortality or growth inhibition) at 200 ppm [2]	mortality at 200 ppm [3]	mortality at 200 ppm [4]	percent effect (mortality or growth inhibition) at 200 ppm [5]
CCS(=O)(=O)c1cc(OC(C)(C)COC)cnc1-c1nc2cc(C(F)(F)F)ncc2n1C [Compound P48, 2-[3-ethylsulfonyl-5-(2-methoxy-1,1-dimethyl-ethoxy)-2-pyridyl]-3-methyl-6-(trifluoromethyl)imidazo[4,5-c]pyridine]	≥ 80%	≥ 80%	≥ 80%		
CCSc1cc(OC2(C)COC2)cnc1-c1nc2cc(C(F)(F)F)ncc2n1C [Compound P14, 2-[3-ethylsulfanyl-5-(3-methyloxetan-3-yl)oxy-2-pyridyl]-3-methyl-6-(trifluoromethyl)imidazo[4,5-c]pyridine]		≥ 80%		≥ 80%	
CCSc1cc(OCC(C)(C)C)cnc1-c1nc2cc(C(F)(F)F)ncc2n1C [Compound P25, 2-[5-(2,2-dimethylpropoxy)-3-ethylsulfanyl-2-pyridyl]-3-methyl-6-(trifluoromethyl)imidazo[4,5-c]pyridine]		≥ 80%	≥ 80%		
CCS(=O)(=O)c1cc(OC(C)(C)C(=O)NC)cnc1-c1nc2cc(C(F)(F)F)ncc2n1C [Compound P55, 2-[[5-ethylsulfonyl-6-[3-methyl-6-(trifluoromethyl)imidazo[4,5-c]pyridin-2-yl]-3-pyridyl]oxy]-N,2-dimethyl-propanamide]	≥ 80%		≥ 80%		
CCSc1cc(OC2COC2)cnc1-c1nc2cc(C(F)(F)F)ncc2n1C [Compound P2, 2-[3-ethylsulfanyl-5-(oxetan-3-yloxy)-2-pyridyl]-3-methyl-6-(trifluoromethyl)imidazo[4,5-c]pyridine]				≥ 80%	≥ 80%
C=CCOc1cnc(-c2nc3cc(C(F)(F)F)ncc3n2C)c(SCC)c1 [Compound P95, 2-(5-allyloxy-3-ethylsulfanyl-2-pyridyl)-3-methyl-6-(trifluoromethyl)imidazo[4,5-c]pyridine]				≥ 80%	
CCS(=O)(=O)c1cc(OS(=O)(=O)C(F)F)cnc1-c1nc2cc(C(F)(F)F)ncc2n1C [Compound P91, [5-ethylsulfonyl-6-[3-methyl-6-(trifluoromethyl)imidazo[4,5-c]pyridin-2-yl]-3-pyridyl] difluoromethanesulfonate]				≥ 80%	
CCS(=O)(=O)c1cc(OC(C(=O)N(C)C)S(C)(=O)=O)cnc1-c1nc2cc(C(F)(F)F)ncc2n1C (stereo not shown) [Compound P38, 2-[[5-ethylsulfonyl-6-[3-methyl-6-(trifluoromethyl)imidazo[4,5-c]pyridin-2-yl]-3-pyridyl]oxy]-N,N-dimethyl-2-methylsulfonyl-acetamide]	≥ 80%				
CCS(=O)(=O)c1cc(OCc2cc(C3CC3)no2)cnc1-c1nc2cc(C(F)(F)F)ncc2n1C [Compound P83, 3-cyclopropyl-5-[[5-ethylsulfonyl-6-[3-methyl-6-(trifluoromethyl)imidazo[4,5-c]pyridin-2-yl]-3-pyridyl]oxymethyl]isoxazole]		≥ 80%		≥ 80%	≥ 80%
CCS(=O)(=O)c1cc(OS(C)(=O)=O)cnc1-c1nc2cc(C(F)(F)F)ncc2n1C [Compound P93, [5-ethylsulfonyl-6-[3-methyl-6-(trifluoromethyl)imidazo[4,5-c]pyridin-2-yl]-3-pyridyl] methanesulfonate]		≥ 80%	≥ 80%		
CCS(=O)(=O)c1cc(OC(F)(F)CBr)cnc1-c1nc2cc(C(F)(F)F)ncc2n1C [Compound P109, 2-[5-(2-bromo-1,1-difluoro-ethoxy)-3-ethylsulfonyl-2-pyridyl]-3-methyl-6-(trifluoromethyl)imidazo[4,5-c]pyridine]		≥ 80%			
CCS(=O)(=O)c1cc(OCCS(C)(=O)=O)cnc1-c1nc2cc(C(F)(F)F)ncc2n1C [Compound P7, 2-[3-ethylsulfonyl-5-(2-methylsulfonylethoxy)-2-pyridyl]-3-methyl-6-(trifluoromethyl)imidazo[4,5-c]pyridine]	≥ 80%		≥ 80%		≥ 80%
CCSc1cc(OC(C#N)(CC)CC)cnc1-c1nc2cc(C(F)(F)F)ncc2n1C [Compound P43, 2-ethyl-2-[[5-ethylsulfanyl-6-[3-methyl-6-(trifluoromethyl)imidazo[4,5-c]pyridin-2-yl]-3-pyridyl]oxy]butanenitrile]					≥ 80%
CCS(=O)(=O)c1cc(OCCS(C)(=O)=O)ccc1-c1nc2cc(C(F)(F)F)ncc2n1C [Compound P102, 2-[2-ethylsulfonyl-4-(2-methylsulfonylethoxy)phenyl]-3-methyl-6-(trifluoromethyl)imidazo[4,5-c]pyridine]	≥ 80%		≥ 80%		≥ 80%
CCS(=O)(=O)c1cc(OC(C)(C)CS(C)(=O)=O)cnc1-c1nc2cc(C(F)(F)F)ncc2n1C [Compound P49, 2-[5-(1,1-dimethyl-2-methylsulfonyl-ethoxy)-3-ethylsulfonyl-2-pyridyl]-3-methyl-6-(trifluoromethyl)imidazo[4,5-c]pyridine]	≥ 80%	≥ 80%	≥ 80%		≥ 80%
CCS(=O)(=O)c1cc(OCC(=O)N(C)C)cnc1-c1nc2cc(C(F)(F)F)ncc2n1C [Compound P51, 2-[[5-ethylsulfonyl-6-[3-methyl-6-(trifluoromethyl)imidazo[4,5-c]pyridin-2-yl]-3-pyridyl]oxy]-N,N-dimethyl-acetamide]	≥ 80%				≥ 80%
C#CCOc1cnc(-c2nc3cc(C(F)(F)F)ncc3n2C)c(SCC)c1 [Compound P17, 2-(3-ethylsulfanyl-5-prop-2-ynoxy-2-pyridyl)-3-methyl-6-(trifluoromethyl)imidazo[4,5-c]pyridine]				≥ 80%	
CCS(=O)(=O)c1cc(OCS(C)(=N)=O)cnc1-c1nc2cc(C(F)(F)F)ncc2n1C (stereo not shown) [Compound P80, [5-ethylsulfonyl-6-[3-methyl-6-(trifluoromethyl)imidazo[4,5-c]pyridin-2-yl]-3-pyridyl]oxymethyl-imino-methyl-oxo-$|^6-sulfane]	≥ 80%		≥ 80%		≥ 80%
CCS(=O)(=O)c1cc(OC/C(C)=N/OC)cnc1-c1nc2cc(C(F)(F)F)ncc2n1C [Compound P64, 1-[[5-ethylsulfonyl-6-[3-methyl-6-(trifluoromethyl)imidazo[4,5-c]pyridin-2-yl]-3-pyridyl]oxy]-N-methoxy-propan-2-imine]		≥ 80%	≥ 80%		≥ 80%
CCS(=O)(=O)c1cc(OCc2ccccc2)cnc1-c1nc2cc(C(F)(F)F)ncc2n1C [Compound P94, 2-(5-benzyloxy-3-ethylsulfonyl-2-pyridyl)-3-methyl-6-(trifluoromethyl)imidazo[4,5-c]pyridine]				≥ 80%	
CCSc1cc(OCC2CC2)cnc1-c1nc2cc(C(F)(F)F)ncc2n1C [Compound P23, 2-[5-(cyclopropylmethoxy)-3-ethylsulfanyl-2-pyridyl]-3-methyl-6-(trifluoromethyl)imidazo[4,5-c]pyridine]		≥ 80%	≥ 80%	≥ 80%	
CCS(=O)(=O)c1cc(OC(SC)C(=O)N(C)C)cnc1-c1nc2cc(C(F)(F)F)ncc2n1C (stereo not shown) [Compound P36, 2-[[5-ethylsulfonyl-6-[3-methyl-6-(trifluoromethyl)imidazo[4,5-c]pyridin-2-yl]-3-pyridyl]oxy]-N,N-dimethyl-2-methylsulfanyl-acetamide]					≥ 80%
CCS(=O)(=O)c1cc(OC(SC)C(=O)NC)cnc1-c1nc2cc(C(F)(F)F)ncc2n1C (stereo not shown) [Compound P37, 2-[[5-ethylsulfonyl-6-[3-methyl-6-(trifluoromethyl)imidazo[4,5-c]pyridin-2-yl]-3-pyridyl]oxy]-N-methyl-2-methylsulfanyl-acetamide]			≥ 80%		≥ 80%
CCS(=O)(=O)c1cc(OCC2(C)COC2)cnc1-c1nc2cc(C(F)(F)F)ncc2n1C [Compound P54, 2-[3-ethylsulfonyl-5-[(3-methyloxetan-3-yl)methoxy]-2-pyridyl]-3-methyl-6-(trifluoromethyl)imidazo[4,5-c]pyridine]	≥ 80%		≥ 80%		≥ 80%
CCS(=O)(=O)c1cc(OC(C)(C)C(=O)N(C)C)cnc1-c1nc2cc(C(F)(F)F)ncc2n1C [Compound P59, 2-[[5-ethylsulfonyl-6-[3-methyl-6-(trifluoromethyl)imidazo[4,5-c]pyridin-2-yl]-3-pyridyl]oxy]-N,N,2-trimethyl-propanamide]	≥ 80%				
CCSc1cc(OC(C)(C)C(N)=O)cnc1-c1nc2cc(C(F)(F)F)ncc2n1C [Compound P77, 2-[[5-ethylsulfanyl-6-[3-methyl-6-(trifluoromethyl)imidazo[4,5-c]pyridin-2-yl]-3-pyridyl]oxy]-2-methyl-propanamide]					≥ 80%
